Data taken from patent EP4703357A1, “TRIAZOLYL-CONTAINING COMPOUNDS” (Chia Tai Tianqing Pharmaceutical Group Co., Ltd., priority 2023, dated 2024).
Read-outs that look alike come from different tables or passages of the source.

What was measured:
Jurkat cells = experiment: Inhibitory activity on Jurkat cell proliferation (CCK-8); type: cell-based; conditions: Homo sapiens, 72 h incubation
Experimental: (§1) Jurkat cells in a good growth state were collected into a centrifuge tube, adjusted to a cell density of 5 × 10^4 cells/mL, and seeded in a 96-well plate (100 µL/well). The cells were incubated overnight in a cell incubator. Compounds were added using a nanoliter pipettor such that the final concentrations of the compounds were 1000 nM-0.46 nM (the addition was performed in duplicate). Meanwhile, a control was set. After another 72 h of incubation in the cell incubator, the assay reagent CCK-8 (manufacturer: Dojindo Laboratories, Beijing; 10 µL/well) was added. After 2 h of incubation in the cell incubator, absorbance was measured at 450 nm on an Envision microplate reader. A four-parameter analysis was performed, a dose-response curve was fit, and IC50 was calculated.

OCI-LY10 cells = experiment: Inhibitory activity on OCI-LY10 cell proliferation (CCK-8); type: cell-based; conditions: Homo sapiens, 72 h incubation
Experimental: as §1, with “OCI-LY10 cells” for “Jurkat cells”, “of 9” for “of 5”

[1] = In vitro liver microsomal stability, mouse; type: in vitro ADME; conditions: mouse liver microsome 0.5 mg/mL, NADPH, 37 °C, 1 h
Experimental: (§2) Liver microsome incubation samples were prepared by mixing a PBS buffer (pH = 7.4), a liver microsome solution (0.5 mg/mL), a test compound, and an NADPH + MgCl2 solution, and incubated at 37 °C and 300 rpm for 1 h. Zero-hour samples were prepared by mixing a PBS buffer (pH = 7.4), a liver microsome solution (0.5 mg/mL), and a test compound. An acetonitrile solution containing an internal standard was added to the samples, and supernatants were prepared by protein precipitation, diluted, and then assayed by LC/MS/MS. Table 17. In vitro metabolic stability of related compounds in liver microsomes of various species

[2] = In vitro liver microsomal stability, human; type: in vitro ADME; conditions: human liver microsome 0.5 mg/mL, NADPH, 37 °C, 1 h
Experimental: as §2

[3] = test system: OCI-LY10 human diffuse large B-cell lymphoma NOD-SCID mouse subcutaneous xenograft tumor model; experiment: Efficacy in OCI-LY10 subcutaneous xenograft tumor model; type: in vivo, NOD-SCID mice; conditions: for TGI(%): by tumor weight
From the text: Efficacy evaluation in OCI-LY10 human diffuse large B-cell lymphoma NOD-SCID mouse subcutaneous xenograft tumor model • (1) SPF female NOD-SCID mice (source: Jiangsu Huachuang Xinnuo Pharmaceutical Technology Co., Ltd.) were inoculated subcutaneously at the right side armpit with OCI-LY10 human diffuse large B-cell lymphoma cells at 1 × 10^7 cells/mouse. When the mean tumor volume reached about 200 mm^3, the animals were divided into a control group (vehicle control group) and treatment groups (compound groups).
The administration dose included 1 mg/kg, 2 mg/kg, and 4 mg/kg, and the administration frequency was once daily. The day of grouping was defined as day 0, and intragastric administration was started on day 0 for 21 consecutive days.
Alternatively, the administration dose was 4 mg/kg, and the administration frequency was 5 times per week. The day of grouping was defined as day 0, and intragastric administration was started on day 0 five times per week for two consecutive weeks.
The tumor volume was measured once every 3 days, and meanwhile, the mice were weighed and the data were recorded; the general behavior of the mice was observed and recorded every day. After the experiment was completed, the tumors were removed, weighed, and photographed.
The detection index and the calculation formula are as follows: • Tumor volume TV (mm^3) = 1/2 × (a × b^2), wherein a is the long diameter of the tumor, and b is the short diameter of the tumor; • Relative tumor volume RTV = TVt/TV0, wherein TV0 is the tumor volume on day 0, and TVt is the tumor volume at each measurement; • Relative tumor proliferation rate T/C (%) = (TRTV/CRTV) × 100%, wherein TRTV is RTV of the treatment group, and CRTV is RTV of the vehicle control group; • Tumor growth inhibition rate TGI (%) = (1 - TW/TW0) × 100%; wherein TW is the tumor weight of the treatment group, and TW0 is the tumor weight of the vehicle control group; • Weight change rate WCR (%) = (Wtt - Wt0)/Wt0 × 100%, wherein Wt0 is the body weight of the mouse on day 0, and Wtt is the body weight of the mouse at each measurement.

Mouse pharmacokinetics [4] = type: in vivo; conditions: ICR, plasma, po, 3 mg/kg, Mice administered intragastrically 3 mpk
Experimental: ICR mice weighing 18-22 g were randomized into groups of 9 mice per group after 3-5 days of acclimatization and then administered intragastrically at a dose of 3 mg/kg.
Plasma samples to be tested were prepared by taking blood from the orbit at time points of 15 min, 30 min, 1 h, 2 h, 4 h, 6 h, 8 h, 10 h, and 24 h.
20 µL of each plasma sample to be tested and a standard curve sample were taken, and an acetonitrile solution containing an internal standard was added. A supernatant was obtained by protein precipitation, diluted, and then assayed by LC/MS/MS.
Pharmacokinetic parameters were fitted using a non-compartmental model.

Mouse pharmacokinetics [5] = type: in vivo, ICR mice; conditions: ICR, plasma
[6] = Table 19, 4mg/kg intragastric, Day 21 of assay
[7] = Table 20, 4mg/kg intragastric, Day 18 of assay
[8] = Table 19, 2mg/kg intragastric, Day 21 of assay
[9] = 1 mg/kg, Mice administered by single intravenous injection 1 mpk

Structure (SMILES): NC(=O)/C(=C/n1cnc(-c2cc(C(F)(F)F)nc(C(F)(F)F)c2)n1)c1cnc2cccnc2c1 [25(25-A)]
- IC50 (Jurkat cells): ≤ 20 nM
- IC50 (OCI-LY10 cells): ≤ 40 nM
- Mouse liver microsome Residuals at 60 min (%) [1]: 94.66%
- Human liver microsome Residuals at 60 min (%) [2]: 110.48%
- RTV (mean±SD) [3, 6]: 1.8±0.6
- T/C(%) [3, 6]: 16.7%
- TV(mm^3) (mean±SD) [3, 6]: 360±105 mm^3
- Weight change rate (%) (mean ± SD) ([3]; Table 19, 4mg/kg intragastric, Day 23 of assay): 1.7±5.3%
- TGI(%) ([3]; Table 19, 4mg/kg intragastric, Day 23 of assay, * p < 0.05 vs control): 91.1%*

Structure (SMILES): NC(=O)/C(=C/n1cnc(-c2cc(C(F)(F)F)nc(C(F)(F)F)c2)n1)c1cnc2ccccc2c1 [11(11-A)]
- IC50 (Jurkat cells): ≤ 20 nM
- IC50 (OCI-LY10 cells): ≤ 40 nM
- Mouse liver microsome Residuals at 60 min (%) [1]: 89.63%
- Human liver microsome Residuals at 60 min (%) [2]: 86.18%
- RTV (mean±SD) [3, 7]: 1.7±0.2
- T/C(%) [3, 7]: 21.8%
- TV(mm^3) (mean±SD) [3, 7]: 326±52 mm^3
- Weight change rate (%) (mean ± SD) ([3]; Table 20, 4mg/kg intragastric, Day 21 of assay): 0.6±8.1%
- TGI(%) ([3]; Table 20, 4mg/kg intragastric, Day 21 of assay, ** p < 0.01 vs control): 89.7%**

Structure (SMILES): Cc1ccc(/C(=C\n2cnc(-c3cc(C(F)(F)F)nc(C(F)(F)F)c3)n2)C(N)=O)cn1 [21(21-A)]
- Mouse liver microsome Residuals at 60 min (%) [1]: 99.28%
- Human liver microsome Residuals at 60 min (%) [2]: 94.26%
- Cmax (Mouse pharmacokinetics [4]): 871 ng/mL
- Tmax (Mouse pharmacokinetics [4]): 1 h
- half-life (Mouse pharmacokinetics [4]): 2.35 h
- AUC(0-t) (Mouse pharmacokinetics [4]; read-out: AUC (0-24)): 4750 ng·h/mL
- RTV (mean±SD) [3, 8]: 2.4±0.4
- T/C(%) [3, 8]: 22.2%
- TV(mm^3) (mean±SD) [3, 8]: 520±178 mm^3
- Weight change rate (%) (mean ± SD) ([3]; Table 19, 2mg/kg intragastric, Day 23 of assay): -2.0±6.5%
- TGI(%) ([3]; Table 19, 2mg/kg intragastric, Day 23 of assay, * p < 0.05 vs control): 89.3%*
- AUC(0-inf) (Mouse pharmacokinetics [5]; [9]): 1630 ng·h/mL
- clearance (Mouse pharmacokinetics [5]; [9]): 10.2 mL/min/kg
- half-life (Mouse pharmacokinetics [5]; [9]): 3.02 h
- AUC(0-t) (Mouse pharmacokinetics [5]; 1 mg/kg, Mice administered by single intravenous injection 1 mpk, read-out: AUC (0-24)): 1630 ng·h/mL
- AUC(0-inf) (Mouse pharmacokinetics [5]; po, 3 mg/kg, Mice administered intragastrically 3 mpk): 4760 ng·h/mL
